These are literature values, as cited in US8377976B2, “N-hydroxyamidinoheterocycles as modulators of indoleamine 2,3-dioxygenase” (Incyte Corporation, priority 2006, dated 2013).

Series [1] relates to peripheral blood lymphocytes (PBLs). Particulars: HeLa cells co-cultured with PBLs.
A further series has as its system allogeneic concepti. The conditions noted are these: pregnant mice exposed to 1MT.
The subject of the next series is tumor growth. The conditions noted are these: mice.
The subject of series [2] is CD123-positive dendritic cells. Particulars: mature and immature CD123-positive dendritic cells.
For the next series, the system named is LLC tumors. The conditions noted are these: C57B1/6 mice, versus placebo.
The subject of another series is P815 tumor. The conditions noted are these: pre-immunized immune-competent mice.

On to `Cn1cc(C[C@H](N)C(=O)O)c2ccccc21` [Example 1-MT, 1-methyl-tryptophan], for which the “reduction in PBL proliferation upon treatment with interleukin-2 (IL2)” value in series [1] was “reversed”. Moreover, the rejection of concepti result with allogeneic concepti was “rapid, T cell-induced rejection of all allogeneic concepti”. Moreover, in the series on tumor growth, the “tumor growth in combination with chemotherapeutic agents” value is “synergize with chemotherapeutic agents to reduce tumor growth”. Moreover, the “IDO suppressive activity on T-cell activity” value in series [2] is reported as “blocked”. For the same compound, the formation of tumors result with LLC tumors is “markedly delayed”. The growth of tumors entry in the series on P815 tumor is given as “inhibited”.
